The record followed here is US20240246913A1, “2-CARBOXYL-INDOLE INHIBITORS OF METALLO-BETA-LACTAMASES” (Oxford University Innovation Limited, priority 2021, published 2024).

One series has as its target VIM-1 (Pseudomonas aeruginosa, UniProt A0A0F7KYQ8). Kind of series: MBL inhibition, FC-5 fluorescence assay, VIM-1. The class given is biochemical. Particulars: FC-5 cephalosporin substrate, ranges of obtained pIC50, read-out: pIC50 VIM-1 (converted). The method in brief:
(§1)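 FC-5 turnover; fluorescence ex 380 nm/em 460 nm; initial rates; normalized dose-response, variable-slope fit; 4 replicates per concentration point.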

Series [1] in a line: Metabolic stability in human hepatocytes. The class given is in vitro ADME. Particulars: cryopreserved human hepatocytes, 1 μM compound, 37° C., up to 90 min, read-out: Metabolic stability in hepatocytes, in vitro t1/2, Human. A digest of the protocol: (§2)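 Cryopreserved hepatocytes at 1.0×10^6 cells/ml in Williams medium E were incubated with 1 μM compound (final) at 37° C. Samples at 0, 5, 15, 30, 60 and 90 min were quenched with MeCN containing warfarin internal standard and analysed by LC-MS/MS.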

For another series, the target named is IMP-1 (Serratia marcescens, UniProt P52699). Kind of series: MBL inhibition, FC-5 fluorescence assay, IMP-1. The series is classed as biochemical. Conditions: FC-5 cephalosporin substrate, fluorescence; ranges of obtained pIC50; read-out: pIC50 IMP-1 (converted). A digest of the protocol:
as §1

A short description of series [2]: Plasma protein binding, equilibrium dialysis, mouse plasma. The series is classed as in vitro ADME. Conditions: pH 7.4, equilibrium dialysis (RED) 4 hours at 37° C., read-out: Plasma protein binding, fu, Mouse. The method in brief:
(§3)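 Compound at 10 μM in plasma dialysed against 67 mM phosphate buffer pH 7.4 for 4 h at 37° C. in RED device; unbound fraction from buffer and plasma levels by LC-MS/MS. Plasma stability checked in parallel over 4 h at 37° C. versus frozen control.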

A further series deals with bacteria. Kind of series: Thigh and/or septicaemia mouse model of infection, with meropenem. The series is classed as in vivo. Particulars: NMRI mice; single dose with meropenem subcutaneous 1 h after inoculation; endpoint 3 h after treatment initiation. How it is done: Female NMRI mice (5-6 weeks old, 26-30 gram, n=5) were rendered neutropenic via intraperitoneal injection of two doses of cyclophosphamide on day 4 and day 1 before infection. The animals were infected via intramuscular injection of an inoculum containing 10^6 CFU/mL of bacteria in the left thigh. The animals were treated with a single dose of meropenem subcutaneous +/− inhibitor 1 h after inoculation, and animals were either euthanised at the start of treatment or at the study endpoint at 3 h after treatment initiation. Clinical scores were monitored at 1 and 4 hours post inoculation and were in all cases mild or moderate. Thighs were aseptically removed from the animals, homogenised, diluted, and plated for incubation. Bacterial counting was performed after 18-22 h of incubation at 35° C. in ambient air.
Immunocompetent female NMRI mice mice (5-6 weeks old, 26-30 gram, n=5) were inoculated intraperitoneally with 0.5 ml inoculum containing 5×10^5 CFU suspended in 5% porcine mucin.
The animals were treated with a single dose of meropenem subcutaneous+/−metallo-b-lactamase inhibitor intravenous 1 h after inoculation. Animals were either euthanised at the start of treatment or at the study endpoint at 3 h after treatment initiation. Clinical scores were monitored at 1 and 4 hours post inoculation and were in all cases mild or moderate. Mice were anaesthetised anesthetized with a buprenorphine/tiletamine/zolazepam cocktail and bled, then euthanized and the peritoneum flushed with 2 ml sterile 0.9% NaCl and collected. The blood and/or peritoneal flush were serially diluted and plated for incubation. Bacterial counting was performed after 18-22 h of incubation at 35° C. in ambient air.

Series [3] in a line: Metabolic stability in mouse hepatocytes. Conditions: cryopreserved mouse hepatocytes, 1 μM compound, 37° C., up to 90 min, read-out: Metabolic stability in hepatocytes, in vitro t1/2, Mouse. The series is classed as in vitro ADME. The method in brief:
as §2

The nature of series [4]: Plasma protein binding, equilibrium dialysis, human plasma. The class given is in vitro ADME. Conditions: pH 7.4, equilibrium dialysis (RED) 4 hours at 37° C., read-out: Plasma protein binding, fu, Human. The method in brief:
as §3
In general terms: In equilibrium dialysis only unbound substance equilibrates across the membrane.

Series [5] concerns Acinetobacter baumannii NDM-1. Kind of series: Antibiotic susceptibility testing (MIC), AB NDM-1. The series is classed as cell-based. Particulars: agar or broth dilution (CLSI/EUCAST). The protocol: (§4) Antibiotic susceptibility testing was performed using the agar or broth dilution method, in line with the Clinical and Laboratory Standards Institute (CLSI) and European Committee on Antimicrobial Susceptibility Testing (EUCAST) requirements.
For orientation: Broth dilution looks for growth in wells or tubes with falling amounts of substance.

The next series has as its target NDM-1 (Klebsiella pneumoniae, UniProt C7C422). Kind of series: MBL inhibition, FC-5 fluorescence assay, NDM-1. Particulars: FC-5 cephalosporin substrate, fluorescence; ranges of obtained pIC50; read-out: pIC50 NDM-1 (converted). The series is classed as biochemical. The method in brief:
as §1

A further series deals with Escherichia coli NDM-1. Kind of series: Antibiotic susceptibility testing (MIC), EC NDM-1. The series is classed as cell-based. Conditions: agar or broth dilution (CLSI/EUCAST). The protocol: as §4
The target in a further series is VIM-2 (Escherichia coli, UniProt Q5U7L7). Description: MBL inhibition, FC-5 fluorescence assay, VIM-2. The series is classed as biochemical. Conditions: FC-5 cephalosporin substrate, ranges of obtained pIC50, read-out: pIC50 VIM-2 (converted). The method in brief:
as §1

Another series deals with Escherichia coli NDM-7. Kind of series: Antibiotic susceptibility testing (MIC), EC NDM-7. The series is classed as cell-based. Conditions: agar or broth dilution (CLSI/EUCAST). The protocol: as §4

Chain of NDM-1 (C7C422 29-270, looked up, species assumed): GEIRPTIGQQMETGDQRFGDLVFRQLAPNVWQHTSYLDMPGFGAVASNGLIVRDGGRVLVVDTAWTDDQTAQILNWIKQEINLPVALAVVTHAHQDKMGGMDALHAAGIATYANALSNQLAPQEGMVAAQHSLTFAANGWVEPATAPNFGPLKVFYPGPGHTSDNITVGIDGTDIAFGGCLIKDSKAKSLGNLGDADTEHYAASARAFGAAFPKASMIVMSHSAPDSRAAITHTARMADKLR
Chain of IMP-1 (P52699 19-246, looked up, species assumed): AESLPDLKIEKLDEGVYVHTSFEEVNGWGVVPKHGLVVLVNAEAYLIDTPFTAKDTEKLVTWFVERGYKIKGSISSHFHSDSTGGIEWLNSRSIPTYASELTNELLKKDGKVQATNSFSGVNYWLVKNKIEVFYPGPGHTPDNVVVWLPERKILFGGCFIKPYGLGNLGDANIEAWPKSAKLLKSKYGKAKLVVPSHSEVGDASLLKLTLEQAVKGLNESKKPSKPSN

`COc1cc(-c2c(C(=O)O)[nH]c3c([C@H](C)n4cc(CN5CC(N)C5)oc4=O)cccc23)ccn1` [IC-56, 7-[(1S)-1-{5-[(3-aminoazetidin-1-yl)methyl]-2-oxo-2,3-dihydro-1,3-oxazol-3-yl}ethyl]-3-(2-methoxypyridin-4-yl)-1H-indole-2-carboxylic acid]: the IC50 on VIM-1 is > 10 nM; at IMP-1, > 10 nM; at NDM-1, < 0.1 nM; at VIM-2, 0.1 to 1 nM. The half-life at 1 μM was > 6.67 h in series [1] and < 2.5 h in [3]. Further, the fraction unbound at 4 h, 10 μM in [2] fell in the range of 0.005 to 0.05; in series [4], 0.05 to 0.25. Besides, the “Dose required to reduce minim 1 log fold CFU in a thigh and or a sepsis animal model” value in the series on bacteria is “C (C = 5-10 mg/kg)”. Moreover, the “MIC values AB NDM-1” value in [5] is on record as “B (B MIC values 2 ÷ 8)”. In addition, the “MIC values EC NDM-1” value in the series on Escherichia coli NDM-1 is recorded as “A (A = MIC values ≤ 1)”. Also, the “MIC values EC NDM-7” value against Escherichia coli NDM-7 is reported as “A (A = MIC values ≤ 1)”.

As to `C[C@@H](c1cccc2c(-c3ccc(NS(C)(=O)=O)c(F)c3)c(C(=O)O)[nH]c12)n1cc(CN2CC(N)C2)oc1=O` [IC-57, 7-[(1S)-1-{5-[(3-Aminoazetidin-1-yl)methyl]-2-oxo-2,3-dihydro-1,3-oxazol-3-yl}ethyl]-3-(3-fluoro-4-methanesulfonamidophenyl)-1H-indole-2-carboxylic acid], the IC50 is 1 to 10 nM on VIM-1, > 10 nM at IMP-1, < 0.1 nM on NDM-1 and 0.1 to 1 nM on VIM-2. Also, the values for the half-life at 1 μM in [1] and in [3] were 2.5 to 6.67 h and < 2.5 h, respectively. Besides, the fraction unbound at 4 h, 10 μM lay within 0.005 to 0.05 in [2] and 0.05 to 0.25 in [4]. For the same compound, the “Dose required to reduce minim 1 log fold CFU in a thigh and or a sepsis animal model” value with bacteria is on record as “B (B = 30-10 mg/kg)”. For the same compound, the “MIC values AB NDM-1” value in series [5] is listed as “A (A = MIC values ≤ 1)”. The “MIC values EC NDM-1” value in the series with Escherichia coli NDM-1 is listed as “A (A = MIC values ≤ 1)”. In addition, in the series on Escherichia coli NDM-7, the “MIC values EC NDM-7” value is “A (A = MIC values ≤ 1)”.

As to `C[C@@H](c1cccc2c(-c3ccc(CS(C)(=O)=O)c(F)c3)c(C(=O)O)[nH]c12)N1C[C@]2(C[C@@H](CN)C2)OC1=O` [IC-60, 7-((1S)-1-(2S,4r)-(2-(aminomethyl)-6-oxo-5-oxa-7-azaspiro[3.4]oct-7-yl)ethyl)-3-(3-fluoro-4-((methylsulfonyl)methyl)phenyl)-1H-indole-2-carboxylic acid], the IC50 at VIM-1 was 0.1 to 1 nM; on IMP-1, > 10 nM; on NDM-1, < 0.1 nM; at VIM-2, 0.1 to 1 nM. In addition, the half-life at 1 μM in series [1] and in series [3] was > 6.67 h each time. The fraction unbound at 4 h, 10 μM in series [2] was 0.05 to 0.25; in [4], > 0.25. For the same compound, the “Dose required to reduce minim 1 log fold CFU in a thigh and or a sepsis animal model” value in the series with bacteria is listed as “C (C = 5-10 mg/kg)”. The “MIC values AB NDM-1” value in series [5] is “A (A = MIC values ≤ 1)”. Also, the “MIC values EC NDM-1” value in the series with Escherichia coli NDM-1 is “A (A = MIC values ≤ 1)”. In addition, the “MIC values EC NDM-7” value with Escherichia coli NDM-7 is “A (A = MIC values ≤ 1)”.

Turning to `C[C@@H](c1cccc2c(-c3ccc(CS(C)(=O)=O)c(F)c3)c(C(=O)O)[nH]c12)N1C[C@]2(C[C@H](CN)C2)OC1=O` [IC-61, 7-((1S)-1-(2R,4s)-(2-(aminomethyl)-6-oxo-5-oxa-7-azaspiro[3.4]oct-7-yl)ethyl)-3-(3-fluoro-4-((methylsulfonyl)methyl)phenyl)-1H-indole-2-carboxylic acid], the IC50 on VIM-1 was 0.1 to 1 nM; at IMP-1, 1 to 10 nM; on NDM-1, < 0.1 nM; at VIM-2 it was < 0.1 nM. The half-life at 1 μM in series [1] and in series [3] was > 6.67 h in each case. The values for the fraction unbound at 4 h, 10 μM in [2] and in series [4] were 0.005 to 0.05 and 0.05 to 0.25, respectively. Moreover, in the series with bacteria, the “Dose required to reduce minim 1 log fold CFU in a thigh and or a sepsis animal model” value is recorded as “C (C = 5-10 mg/kg)”. Further, the “MIC values AB NDM-1” value in [5] is reported as “B (B MIC values 2 ÷ 8)”. The “MIC values EC NDM-1” value in the series on Escherichia coli NDM-1 is recorded as “A (A = MIC values ≤ 1)”. Also, in the series on Escherichia coli NDM-7, the “MIC values EC NDM-7” value is recorded as “A (A = MIC values ≤ 1)”.
